Tests used:
Format in all cases: cell-based
RPMI-8226 = assay: NCI 60 cell assay, leukemia RPMI-8226; details: Homo sapiens, 48 h; RPMI-8226 (leukemia); drug exposure two days, SRB endpoint; read-out: GI-50 value
Protocol: (§1) Samples were tested in the standard National Cancer Institute 60-cell line protocol. First, they were tested against all 60 cell lines in a single final concentration of 10 micromolar. Then, they were separately tested in five 10-fold dilutions. The drug exposure was two days, with an SRB endpoint.

A549/ATCC = assay: NCI 60 cell assay, NSCLC A549/ATCC; details: Homo sapiens, 48 h, drug exposure two days, SRB endpoint, read-out: GI-50 value
Protocol: as §1

EKVX = assay: NCI 60 cell assay, NSCLC EKVX; details: Homo sapiens, 48 h, drug exposure two days, SRB endpoint, read-out: GI-50 value
Protocol: as §1

HOP-62 = assay: NCI 60 cell assay, NSCLC HOP-62; details: Homo sapiens, 48 h; HOP-62 (NSCLC); drug exposure two days, SRB endpoint; read-out: GI-50 value
Protocol: as §1

HOP-92 = assay: NCI 60 cell assay, NSCLC HOP-92; details: Homo sapiens, 48 h; HOP-92 (NSCLC); drug exposure two days, SRB endpoint; read-out: GI-50 value
Protocol: as §1

NCI-H226 = assay: NCI 60 cell assay, NSCLC NCI-H226; details: Homo sapiens, 48 h, drug exposure two days, SRB endpoint, read-out: GI-50 value
Protocol: as §1

COLO 205 = assay: NCI 60 cell assay, colon COLO 205; details: Homo sapiens, 48 h; COLO 205 (colon); drug exposure two days, SRB endpoint; read-out: GI-50 value
Protocol: as §1

HCT-116 = assay: NCI 60 cell assay, colon HCT-116; details: Homo sapiens, 48 h; HCT-116 (colon); drug exposure two days, SRB endpoint; read-out: GI-50 value
Protocol: as §1

SF-268 = assay: NCI 60 cell assay, CNS SF-268; details: Homo sapiens, 48 h; SF-268 (CNS); drug exposure two days, SRB endpoint; read-out: GI-50 value
Protocol: as §1

SF-295 = assay: NCI 60 cell assay, CNS SF-295; details: Homo sapiens, 48 h; SF-295 (CNS); drug exposure two days, SRB endpoint; read-out: GI-50 value
Protocol: as §1

SNB-19 = assay: NCI 60 cell assay, CNS SNB-19; details: Homo sapiens, 48 h; SNB-19 (CNS); drug exposure two days, SRB endpoint; read-out: GI-50 value
Protocol: as §1

SNB-75 = assay: NCI 60 cell assay, CNS SNB-75; details: Homo sapiens, 48 h; SNB-75 (CNS); drug exposure two days, SRB endpoint; read-out: GI-50 value
Protocol: as §1

U251 = assay: NCI 60 cell assay, CNS U251; details: Homo sapiens, U-251, 48 h, drug exposure two days, SRB endpoint, read-out: GI-50 value
Protocol: as §1

LOX IMVI = assay: NCI 60 cell assay, melanoma LOX IMVI; details: Homo sapiens, 48 h, drug exposure two days, SRB endpoint, read-out: GI-50 value
Protocol: as §1

MALME-3M = assay: NCI 60 cell assay, melanoma MALME-3M; details: Homo sapiens, 48 h; MALME-3M (melanoma); drug exposure two days, SRB endpoint; read-out: GI-50 value
Protocol: as §1

SK-MEL-2 = assay: NCI 60 cell assay, melanoma SK-MEL-2; details: Homo sapiens, 48 h; SK-MEL-2 (melanoma); drug exposure two days, SRB endpoint; read-out: GI-50 value
Protocol: as §1

SK-MEL-5 = assay: NCI 60 cell assay, melanoma SK-MEL-5; details: Homo sapiens, 48 h; SK-MEL-5 (melanoma); drug exposure two days, SRB endpoint; read-out: GI-50 value
Protocol: as §1

UACC-62 = assay: NCI 60 cell assay, melanoma UACC-62; details: Homo sapiens, 48 h; UACC-62 (melanoma); drug exposure two days, SRB endpoint; read-out: GI-50 value
Protocol: as §1

IGROV1 = assay: NCI 60 cell assay, ovarian IGROV1; details: Homo sapiens, IGROV-1, 48 h, drug exposure two days, SRB endpoint, read-out: GI-50 value
Protocol: as §1

NCI/ADR-RES = assay: NCI 60 cell assay, ovarian NCI/ADR-RES; details: Homo sapiens, 48 h, drug exposure two days, SRB endpoint, read-out: GI-50 value
Protocol: as §1

SK-OV-3 = assay: NCI 60 cell assay, ovarian SK-OV-3; details: Homo sapiens, 48 h; SK-OV-3 (ovarian); drug exposure two days, SRB endpoint; read-out: GI-50 value
Protocol: as §1

CAKI-1 = assay: NCI 60 cell assay, renal CAKI-1; details: Homo sapiens, 48 h; CAKI-1 (renal); drug exposure two days, SRB endpoint; read-out: GI-50 value
Protocol: as §1

SN12C = assay: NCI 60 cell assay, renal SN12C; details: Homo sapiens, 48 h, drug exposure two days, SRB endpoint, read-out: GI-50 value
Protocol: as §1

TK-10 = assay: NCI 60 cell assay, renal TK-10; details: Homo sapiens, 48 h; TK-10 (renal); drug exposure two days, SRB endpoint; read-out: GI-50 value
Protocol: as §1

MCF7 = assay: NCI 60 cell assay, breast MCF7; details: Homo sapiens, 48 h, drug exposure two days, SRB endpoint, read-out: GI-50 value
Protocol: as §1

HS 578T = assay: NCI 60 cell assay, breast HS 578T; details: Homo sapiens, 48 h; HS 578T (breast); drug exposure two days, SRB endpoint; read-out: GI-50 value
Protocol: as §1

BT-549 = assay: NCI 60 cell assay, breast BT-549; details: Homo sapiens, 48 h; BT-549 (breast); drug exposure two days, SRB endpoint; read-out: GI-50 value
Protocol: as §1

CC1=C2[C@@H](CC1)[C@]1(C)O[C@@](C(C)C)(C[C@H]1OC(=O)CO)[C@H]2OC(=O)C1CC1c1ccccc1 (stereo partly drawn) [Compound (Ij), (3aR,4S,5R,7R,8S)-5-(2-hydroxyacetoxy)-7-isopropyl-1,4-dimethyl-2,3,3a,4,5,6,7,8-octahydro-4,7-epoxyazulen-8-yl-2-phenylcyclopropane-1-carboxylate]
GI50 (RPMI-8226): 13 µM
GI50 (A549/ATCC): 13 µM
GI50 (EKVX): 13 µM
GI50 (HOP-62): 17 µM
GI50 (HOP-92): 13 µM
GI50 (NCI-H226): 17 µM
GI50 (COLO 205): 17 µM
GI50 (HCT-116): 19 µM
GI50 (SF-268): 14 µM
GI50 (SF-295): 13 µM
GI50 (SNB-19): 17 µM
GI50 (SNB-75): 15 µM
GI50 (U251): 15 µM
GI50 (LOX IMVI): 15 µM
GI50 (MALME-3M): 17 µM
GI50 (SK-MEL-2): 16 µM
GI50 (SK-MEL-5): 16 µM
GI50 (UACC-62): 12 µM
GI50 (IGROV1): 19 µM
GI50 (NCI/ADR-RES): 12 µM
GI50 (SK-OV-3): 17 µM
GI50 (CAKI-1): 12 µM
GI50 (SN12C): 7.4 µM
GI50 (TK-10): 17 µM
GI50 (MCF7): 8.9 µM
GI50 (HS 578T): 0.15 µM
GI50 (BT-549): 14 µM

CC1=C2[C@@H](CC1)[C@]1(C)O[C@@](C3CC3)(C[C@H]1OC(=O)CO)[C@H]2OC(=O)C=Cc1ccccc1 [Compound (Is), (3aR,4S,5R,7R,8S)-7-cyclopropyl-5-(2-hydroxyacetoxy)-1,4-dimethyl-2,3,3a,4,5,6,7,8-octahydro-4,7-epoxyazulen-8-yl cinnamate]
GI50 (RPMI-8226): 20 µM
GI50 (A549/ATCC): 14 µM
GI50 (EKVX): 14 µM
GI50 (HOP-62): 16 µM
GI50 (HOP-92): 17 µM
GI50 (NCI-H226): 17 µM
GI50 (COLO 205): 19 µM
GI50 (HCT-116): 16 µM
GI50 (SF-268): 1.6 µM
GI50 (SF-295): 17 µM
GI50 (SNB-19): 19 µM
GI50 (SNB-75): 13 µM
GI50 (U251): 15 µM
GI50 (LOX IMVI): 17 µM
GI50 (MALME-3M): 16 µM
GI50 (SK-MEL-2): 19 µM
GI50 (SK-MEL-5): 18 µM
GI50 (UACC-62): 15 µM
GI50 (IGROV1): 19 µM
GI50 (NCI/ADR-RES): 0.071 µM
GI50 (SK-OV-3): 16 µM
GI50 (CAKI-1): 11 µM
GI50 (SN12C): 0.052 µM
GI50 (TK-10): 19 µM
GI50 (MCF7): 13 µM
GI50 (HS 578T): 0.023 µM
GI50 (BT-549): 0.21 µM

— US10287297B2, “Epoxyazulene derivatives useful for treating cancer and diabetes” (The United States of America, as represented by the …, priority 2015, dated 2019)
